Reference: patent publication US4668620A, “Reducing background interference activity in enzyme-label immunoassays” (Syntex (U.S.A.) Inc., priority 1984, dated 1987)

Tested on: β-galactosidase
Test: Testing effects of serum on native enzyme activity with DUG
Type: biochemical
Details: 0.02 mM DUG, 37°, 10 second delay, 30 second read
Procedure: (2) Testing effects of serum on native enzyme activity with DUG:
The procedure of c (1) above was followed using 50 µl of 1.75×PBS,N3, Mg+0.5% RSA and 50 μ1 β-galactosidase in place of serum and conjugate, respectively, and […] of 0.02mM DUG in 1.75×PBX, N3, Mg +0.5% RSA.
The fluorescence rate was measured at 37° , 10 second delay, 30 second read.

## β-galactosidase: native active enzyme used as label in the immunoassay
Native enzyme in buffer
  ΔF/30 sec., Buffer: 250 ΔF/30 sec.
Native enzyme in serum
  ΔF/30 sec., Serum: 230 ΔF/30 sec.
